Patent publication US20250129430A1, “HIGH ATP-AFFINITY PROTEIN AS THERAPEUTIC TARGET FOR INTRACTABLE CANCER MOLECULAR SUBTYPES AND INHIBITOR THEREOF” (VeraVerse Co., Ltd., priority 2021, published 2025)

Assays:
Experiment in all cases: Cell viability drug screen, 12-point dose-response AUC
Assay type in all cases: cell-based, human
[1] = test system: YCC3; details: YCC3 cells; 72 hours
Outline: (§1)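 Viability: luminescence (Glo kit, 15 min RT), normalized to 0.5% DMSO vehicle. Dosing: half-log, 12 concentrations, 72 h. Cells: 5×10^3/well, treated 24 h after plating. Value: trapezoidal AUC, mean of repeats.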

[2] = test system: OCUM1; details: OCUM1 cells; 72 hours
Outline: as §1

[3] = test system: SK4; details: SK4 cells (SEM subtype); 72 hours
Outline: as §1

[4] = test system: SNU16; details: SNU16 cells; 72 hours
Outline: as §1

[5] = test system: YCC11; details: YCC11 cells (SEM subtype); 72 hours
Outline: as §1

[6] = test system: SNU638; details: SNU638 cells; 72 hours
Outline: as §1

[7] = test system: MKN45; details: MKN45 cells (non-SEM subtype); 72 hours
Outline: as §1

[8] = test system: YCC2; details: YCC2 cells; 72 hours
Outline: as §1

[9] = test system: AGS; details: AGS cells (non-SEM subtype); 72 hours
Outline: as §1

[10] = test system: MKN1; details: MKN1 cells; 72 hours
Outline: as §1

[11] = test system: SNU216; details: SNU216 cells (non-SEM subtype); 72 hours
Outline: as §1

[12] = test system: KATO3; details: KATO3 cells; 72 hours
Outline: as §1

[13] = test system: SNU484; details: SNU484 cells (SEM subtype); 72 hours
Outline: as §1

[14] = test system: NCC59; details: NCC59 cells; 72 hours
Outline: as §1

[15] = test system: SNU620; details: SNU620 cells; 72 hours
Outline: as §1

[16] = test system: MKN74; details: MKN74 cells; 72 hours
Outline: as §1

[17] = test system: SNU1; details: SNU1 cells; 72 hours
Outline: as §1

[18] = test system: NCC20; details: NCC20 cells; 72 hours
Outline: as §1

[19] = test system: Hs746T; details: Hs746T cells (SEM subtype); 72 hours
Outline: as §1

[20] = test system: SNU1967; details: SNU1967 cells; 72 hours
Outline: as §1

[21] = test system: NCC24; details: NCC24 cells; 72 hours
Outline: as §1

[22] = test system: SNU719; details: SNU719 cells; 72 hours
Outline: as §1

[23] = test system: NCC19; details: NCC19 cells; 72 hours
Outline: as §1

[24] = test system: NCI_N87; details: NCI_N87 cells; 72 hours
Outline: as §1

[25] = test system: SNU601; details: SNU601 cells; 72 hours
Outline: as §1

[26] = test system: SNU1750; details: SNU1750 cells (SEM subtype); 72 hours
Outline: as §1

[27] = test system: MKN28; details: MKN28 cells; 72 hours
Outline: as §1

[28] = test system: SNU668; details: SNU668 cells (SEM subtype); 72 hours
Outline: as §1

[29] = test system: FU97; set-up: Average Area Under the Viability Curve (AUC), AUC norm value: scale not given here; details: FU97 cells; 72 hours
Outline: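 Trapezoidal AUC of a 12-point, DMSO-normalized dose-response curve. Luminescent viability was measured after 72 h of exposure at 37° C to half-log serial dilutions (0.5% DMSO control), dosed 24 h after plating FU97 cells at 5×10^3 per well.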

CCCCCCCCCCCCCCCC[n+]1ccccc1 [Cetylpyridinium Chloride]
Average Area Under the Viability Curve (AUC), AUC norm value [1]: 0.3901
Average Area Under the Viability Curve (AUC), AUC norm value [2]: −0.1441
Average Area Under the Viability Curve (AUC), AUC norm value [3]: −1.312
Average Area Under the Viability Curve (AUC), AUC norm value [4]: −0.1534
Average Area Under the Viability Curve (AUC), AUC norm value [5]: −1.129
Average Area Under the Viability Curve (AUC), AUC norm value [6]: −0.3142
Average Area Under the Viability Curve (AUC), AUC norm value [7]: 0
Average Area Under the Viability Curve (AUC), AUC norm value [8]: 0.1421
Average Area Under the Viability Curve (AUC), AUC norm value [9]: −0.1044
Average Area Under the Viability Curve (AUC), AUC norm value [10]: 0.9994
Average Area Under the Viability Curve (AUC), AUC norm value [11]: −0.1483
Average Area Under the Viability Curve (AUC), AUC norm value [12]: 1.072
Average Area Under the Viability Curve (AUC), AUC norm value [13]: −0.7401
Average Area Under the Viability Curve (AUC), AUC norm value [14]: 1.497
Average Area Under the Viability Curve (AUC), AUC norm value [15]: 0.09525
Average Area Under the Viability Curve (AUC), AUC norm value [16]: −0.4176
Average Area Under the Viability Curve (AUC), AUC norm value [17]: 0.5171
Average Area Under the Viability Curve (AUC), AUC norm value [18]: −0.2318
Average Area Under the Viability Curve (AUC), AUC norm value [19]: 0.2943
Average Area Under the Viability Curve (AUC), AUC norm value [20]: −0.5001
Average Area Under the Viability Curve (AUC), AUC norm value [21]: 0.06564
Average Area Under the Viability Curve (AUC), AUC norm value [22]: 1.718
Average Area Under the Viability Curve (AUC), AUC norm value [23]: 1.205
Average Area Under the Viability Curve (AUC), AUC norm value [24]: 1.075
Average Area Under the Viability Curve (AUC), AUC norm value [25]: 2.328
Average Area Under the Viability Curve (AUC), AUC norm value [26]: −0.3613
Average Area Under the Viability Curve (AUC), AUC norm value [27]: 0.4876
Average Area Under the Viability Curve (AUC), AUC norm value [28]: −0.02952
Average Area Under the Viability Curve (AUC), AUC norm value [29]: −2.039

Nc1ccn([C@@H]2O[C@H](CO)[C@@H](O)C2(F)F)c(=O)n1 [Gemcitabine (Gemzar), Gemcitabine]
Average Area Under the Viability Curve (AUC), AUC norm value [1]: 0.1853
Average Area Under the Viability Curve (AUC), AUC norm value [2]: −1.402
Average Area Under the Viability Curve (AUC), AUC norm value [3]: −0.8764
Average Area Under the Viability Curve (AUC), AUC norm value [4]: 0.514
Average Area Under the Viability Curve (AUC), AUC norm value [5]: −1.649
Average Area Under the Viability Curve (AUC), AUC norm value [6]: −2.404
Average Area Under the Viability Curve (AUC), AUC norm value [7]: 1.053
Average Area Under the Viability Curve (AUC), AUC norm value [8]: 0.1111
Average Area Under the Viability Curve (AUC), AUC norm value [9]: −2.364
Average Area Under the Viability Curve (AUC), AUC norm value [10]: −0.9169
Average Area Under the Viability Curve (AUC), AUC norm value [11]: 1.837
Average Area Under the Viability Curve (AUC), AUC norm value [12]: 4.1466
Average Area Under the Viability Curve (AUC), AUC norm value [13]: −0.2757
Average Area Under the Viability Curve (AUC), AUC norm value [14]: 3.024
Average Area Under the Viability Curve (AUC), AUC norm value [15]: −1.64
Average Area Under the Viability Curve (AUC), AUC norm value [16]: −1.402
Average Area Under the Viability Curve (AUC), AUC norm value [17]: −0.3367
Average Area Under the Viability Curve (AUC), AUC norm value [18]: −0.9089
Average Area Under the Viability Curve (AUC), AUC norm value [19]: 1.71
Average Area Under the Viability Curve (AUC), AUC norm value [20]: −4.705
Average Area Under the Viability Curve (AUC), AUC norm value [21]: −1.1
Average Area Under the Viability Curve (AUC), AUC norm value [22]: 3.628
Average Area Under the Viability Curve (AUC), AUC norm value [23]: 1.697
Average Area Under the Viability Curve (AUC), AUC norm value [24]: 1.33
Average Area Under the Viability Curve (AUC), AUC norm value [25]: 0.2471
Average Area Under the Viability Curve (AUC), AUC norm value [26]: 0
Average Area Under the Viability Curve (AUC), AUC norm value [27]: 1.089
Average Area Under the Viability Curve (AUC), AUC norm value [28]: −1.312
Average Area Under the Viability Curve (AUC), AUC norm value [29]: 1.888

CC[C@@H]1C(=O)N(C)c2cnc(Nc3ccc(C(=O)N[C@H]4CC[C@H](N5CCN(CC6CC6)CC5)CC4)cc3OC)nc2N1C(C)C [BI6727 (Volasertib), Volasertib]
Average Area Under the Viability Curve (AUC), AUC norm value [1]: 3.488
Average Area Under the Viability Curve (AUC), AUC norm value [2]: 2.405
Average Area Under the Viability Curve (AUC), AUC norm value [3]: −0.9263
Average Area Under the Viability Curve (AUC), AUC norm value [4]: 0
Average Area Under the Viability Curve (AUC), AUC norm value [5]: −0.7997
Average Area Under the Viability Curve (AUC), AUC norm value [6]: 0.3626
Average Area Under the Viability Curve (AUC), AUC norm value [7]: 0.5875
Average Area Under the Viability Curve (AUC), AUC norm value [8]: −0.09826
Average Area Under the Viability Curve (AUC), AUC norm value [9]: −1.0975
Average Area Under the Viability Curve (AUC), AUC norm value [10]: −0.162
Average Area Under the Viability Curve (AUC), AUC norm value [11]: 1.868
Average Area Under the Viability Curve (AUC), AUC norm value [12]: 3.3921
Average Area Under the Viability Curve (AUC), AUC norm value [13]: −0.03282
Average Area Under the Viability Curve (AUC), AUC norm value [14]: 3.198
Average Area Under the Viability Curve (AUC), AUC norm value [15]: −0.4098
Average Area Under the Viability Curve (AUC), AUC norm value [16]: −0.01134
Average Area Under the Viability Curve (AUC), AUC norm value [17]: −0.487
Average Area Under the Viability Curve (AUC), AUC norm value [18]: 0.5594
Average Area Under the Viability Curve (AUC), AUC norm value [19]: 2.378
Average Area Under the Viability Curve (AUC), AUC norm value [20]: −0.1645
Average Area Under the Viability Curve (AUC), AUC norm value [21]: −0.9502
Average Area Under the Viability Curve (AUC), AUC norm value [22]: 3.74
Average Area Under the Viability Curve (AUC), AUC norm value [23]: 3.256
Average Area Under the Viability Curve (AUC), AUC norm value [24]: −0.3929
Average Area Under the Viability Curve (AUC), AUC norm value [25]: 0.4757
Average Area Under the Viability Curve (AUC), AUC norm value [26]: −0.5962
Average Area Under the Viability Curve (AUC), AUC norm value [27]: −1.335
Average Area Under the Viability Curve (AUC), AUC norm value [28]: 0.1516
Average Area Under the Viability Curve (AUC), AUC norm value [29]: 0.3078

CC(C)n1nc(-c2ccc3oc(N)nc3c2)c2c(N)ncnc21 [INK 128 (MLN0128), INK 128]
Average Area Under the Viability Curve (AUC), AUC norm value [1]: 0.8535
Average Area Under the Viability Curve (AUC), AUC norm value [2]: 0.03105
Average Area Under the Viability Curve (AUC), AUC norm value [3]: −2.931
Average Area Under the Viability Curve (AUC), AUC norm value [4]: −0.8733
Average Area Under the Viability Curve (AUC), AUC norm value [5]: −2.648
Average Area Under the Viability Curve (AUC), AUC norm value [6]: 0.2387
Average Area Under the Viability Curve (AUC), AUC norm value [7]: −0.5935
Average Area Under the Viability Curve (AUC), AUC norm value [8]: 0
Average Area Under the Viability Curve (AUC), AUC norm value [9]: −1.244
Average Area Under the Viability Curve (AUC), AUC norm value [10]: −0.7444
Average Area Under the Viability Curve (AUC), AUC norm value [11]: −0.9082
Average Area Under the Viability Curve (AUC), AUC norm value [12]: 1.633
Average Area Under the Viability Curve (AUC), AUC norm value [13]: −1.089
Average Area Under the Viability Curve (AUC), AUC norm value [14]: 1.541
Average Area Under the Viability Curve (AUC), AUC norm value [15]: 0.08832
Average Area Under the Viability Curve (AUC), AUC norm value [16]: −0.4883
Average Area Under the Viability Curve (AUC), AUC norm value [17]: 1.281
Average Area Under the Viability Curve (AUC), AUC norm value [18]: −2.568
Average Area Under the Viability Curve (AUC), AUC norm value [19]: −1.821
Average Area Under the Viability Curve (AUC), AUC norm value [20]: −0.4728
Average Area Under the Viability Curve (AUC), AUC norm value [21]: 0.7502
Average Area Under the Viability Curve (AUC), AUC norm value [22]: 3.8255
Average Area Under the Viability Curve (AUC), AUC norm value [23]: 0.3022
Average Area Under the Viability Curve (AUC), AUC norm value [24]: 0.7081
Average Area Under the Viability Curve (AUC), AUC norm value [25]: 1.346
Average Area Under the Viability Curve (AUC), AUC norm value [26]: −1.079
Average Area Under the Viability Curve (AUC), AUC norm value [27]: 1.195
Average Area Under the Viability Curve (AUC), AUC norm value [28]: 1.085
Average Area Under the Viability Curve (AUC), AUC norm value [29]: −2.857
